# Experiments:
# [1] = tested on: FRDA lymphocytes; assay: Cytotoxicity assay in FRDA lymphocytes cultured in glucose free media (galactose), Live/Dead flow cytometry; type: cell-based; conditions: FRDA lymphocytes, galactose as sole sugar source, 24 h or 48 h incubation (FIG. 2)
# Protocol: Flow cytometric determination of cell viability by fluorescence labeling was used employing calcein acetoxy-methyl-ester and ethidium homodimer-1 as live and dead cell stains
# Cytotoxicity was assessed by the dye exclusion method. Live cells have intact membranes, which exclude a variety of dyes that easily penetrate the damaged, permeable membranes of non-viable cells. Propidium iodide, a membrane impermeant dye, is generally excluded from viable cells, although it can enter non-viable cells and bind to double-stranded DNA by intercalating between base pairs. Compounds 1-5 were tested for their cytotoxicity in FRDA lymphocytes using FACS analysis with propidium iodide. The results are depicted in FIG. 2. From the results it is evident that cytotoxicity decreases with increasing lipophilicity in lower as well as higher concentrations for compounds 1-5.
# Evaluation of compounds 1-5 for their cytotoxicity and their ability to function within the mitochondrial respiratory chain was carried out by incubation of the prepared compounds for 24 or 48 h with FRDA lymphocytes. A nutrient-sensitized screening strategy has been used by culturing FRDA cells in galactose as the sole sugar source which forces mammalian cells to rely on mitochondrial oxidative phosphorylation (OXPHOS) to produce their ATP; they also become more sensitive to mitochondrial respiratory chain inhibitors than cells grown in glucose medium. Compounds 1-5 were tested for their cytotoxicity in FRDA lymphocytes using a simultaneous staining with a two-color fluorescence assay, the Live/Dead® Viability/Cytotoxicity Kit (Molecular Probes). This assay is used to measure two recognized parameters of cell viability, intracellular esterase activity and plasma integrity. The membrane-impermeant DNA dye ethidium homodimer-1 (EthD-1) was used to identify dead cells whose plasma membrane integrity was disrupted. The membrane-permeant dye calcein-AM was used to label live cells. It penetrates into the cells where it is metabolized by cytoplasmic esterases and becomes a fluorescent but membrane-impermeant probe which is retained in viable cells. One mL of FRDA lymphocyte cells (5×10^5 cells) was plated in a 24-well plate in glucose free media (galactose 25 mM), treated with the test compounds and incubated at 37° C. for 24 h or 48 h in a humidified atmosphere containing 5% CO2 in air. Cells were collected by centrifugation at 300×g for 3 min and washed with phosphate buffered saline. […] The samples were analyzed immediately by flow cytometry (C6 Accuri, BD Biosciences, San Jose, Calif.), using a 488 nm excitation laser and the and the FL1-H channel 530±15 nm emission filter and the FL2-H channel 585±15 nm. For each analysis 10,000 events were recorded and analyzed using C6 Accuri software (BD Biosciences).
# [2] = tested on: FRDA lymphocytes; assay: Measurement of cellular ATP concentration (firefly luciferase); type: cell-based, human; conditions: glucose free media (25 mM galactose), relative to untreated control (FIG. 6)
# Protocol: Results are expressed as percentage of total ATP relative to untreated control.
# ATP levels in FRDA lymphocytes were measured using firefly luciferase. The cells were grown on glucose-free media supplemented with galactose for 24 h prior to the addition of the test compounds. Since cells grown in galactose rely mostly on oxidative phosphorylation (OX-PHOS) to produce their ATP, they become more sensitive to mitochondrial respiratory chain inhibitors than cells grown in glucose medium.
# Measurement of Cellular ATP Concentration
# Total ATP levels in FRDA lymphocytes with or without partially blocking complex I activity with rotenone (5 nM) were measured using firefly luciferase as a means to measure ATP level. The cells were grown on glucose-free media supplemented with galactose. Since cells grown in galactose rely mostly on oxidative phosphorylation (OXPHOS) to produce their ATP, they become more sensitive to mitochondria respiratory chain inhibitors than cells grown in glucose medium. Briefly, lymphocytes (2×10^5 cell/mL) were plated (1 mL) in 24-well plates, treated with the test compounds, and then incubated at 37° C. for 48 h in a humidified atmosphere containing 5% CO2 in air. FRDA lymphocytes with partial inhibition of complex I, cells were preincubated with test compounds for overnight before rotenone (5 nM) treatment for 24 h. Cells in each well were mixed and transferred (100 μL) to 96-well microtiter black-walled cell culture plates (Costar, Corning, N.Y.). The total intracellular ATP level was measured in a luminator (Clarity™ luminescence microplate reader) using an ATP Bioluminescence Assay Kit (ViaLight®-Plus ATP monitoring reagent kit, Lonza) following the manufacturer's protocol. The total ATP level was expressed as a percentage of untreated control. Data are reported as the mean of at least three independent experiments.
# [3] = tested on: FRDA fibroblasts (GM04078); assay: Cytoprotection of BSO-treated FRDA fibroblasts, Live/Dead kit; type: cell-based, human; conditions: overnight preincubation, then BSO (5 mM) 48 h (FIG. 7)
# Protocol: Results obtained were verified by running triplicates and repeating experiments in two independent runs.
# The ability of test compounds 1-5 to confer cytoprotection to buthionine sulfoximine (BSO)-treated FRDA fibroblasts from oxidative damage-induced death was determined by using simultaneous staining with a two-color fluorescence assay, the Live/Dead® Viability/Cytotoxicity Kit (Molecular Probes, Eugene, Oreg.). The cells were subjected to L-buthionine (S,R)-sulfoximine, an inhibitor of de novo glutathione (GSH) biosynthesis. Oxidative damage-induced death of FRDA fibroblasts was blocked by the test compounds in a concentration dependent manner (FIG. 7). […] The optimal side chain length was 15 carbon atoms.
# The ability of the test compounds to confer cytoprotection to BSO-treated FRDA fibroblasts was determined by assessing plasma membrane integrity and intracellular esterase activity using the LIVE/DEAD Viability/Cytotoxicity Kit for mammalian cells according to the manufacturer's protocol. Briefly, FRDA fibroblasts (GM04078) were plated in 96-well microtiter plates at a density of 3000 cell/well (50 μL) (Costar, Corning, N.Y.). The plates were incubated at 37° C. for 24 h in an atmosphere having 95% humidity and 5% CO2 to allow attachment of the cells to the culture plates and to allow the cell density reach 50-60% confluency. The next day the test compounds were dissolved in DMSO, diluted to the appropriate concentrations in fresh cell culture media and the cells were then treated with the test compounds (final DMSO concentration was <0.5%). Plates were incubated at 37° C. overnight in a humidified atmosphere containing 5% CO2 in air. […] Fluorescence intensities were measured with a Spectramax M5 spectrofluorometer (Molecular Devices, Sunnyvale, Calif.) using excitation and emission wavelengths of 485 nm and 525 nm, respectively. […] The viability of non-BSO treated fibroblasts was set as 100%, and the viability of the BSO treated and sample-treated cells was calculated relative to this value. Cell viability was expressed as the percentage of control.
# [4] = tested on: FRDA lymphocyte cells (GM15850); assay: Reactive oxygen species (ROS) assay, DCFH-DA, diethyl maleate-treated FRDA lymphocytes; type: cell-based, human; conditions: 16 h pretreatment, 5 mM diethyl maleate 80 min, DCFH-DA (FIG. 5)
# Protocol: The ability of compounds 1-5 to suppress ROS induced by the depletion of cellular glutathione was evaluated in FRDA lymphocytes in a quantitative FACS experiment using dichlorofluorescein diacetate (DCFH-DA) as an indicator of intracellular ROS levels. In cells DCFH-DA is hydrolyzed by esterases to afford 2, 7-dichlorodihydrofluorescein (DCFH). The non-fluorescent DCFH can be oxidized by cellular oxidants generating fluorescent dichlorofluorescein (DCF).
# Reactive Oxygen Species (ROS) Assay
# Intracellular ROS production was measured in FRDA lymphocyte cells (GM15850, Coriell Cell Repositories, Camden, N.J.) using the oxidant sensitive fluorescent probe 2,7-dichlorodihydrofluorescein diacetate (DCFH-DA) (Molecular Probes) as described previously. […] The samples were analyzed immediately by flow cytometry (C6 Accuri, BD Biosciences, San Jose, Calif.), using a 488 nm excitation laser and the FL1-H channel 530±15 nm emission filter for DCF and FL2-H channel 585±15 nm emission filter for propidium iodide. The generation of ROS, mainly peroxides, was detected as a result of the oxidation of DCFH. In each analysis, 10,000 events were recorded after dead cell and debris were gated out. […] ROS production was evaluated only in living cells which are propidium iodide negative. […] Results were expressed as percentage of ROS scavenging activity or as percentage of the median fluorescence intensity of DCF.
# [5] = tested on: FRDA lymphocytes treated with rotenone (complex I inhibition); assay: Cytoprotection of rotenone-treated FRDA lymphocytes; type: cell-based, human; conditions: 12 h preincubation in glucose-free media, then rotenone (50 nM) 24 h or 48 h (FIG. 3)
Compound,cytotoxicity [1],cellular ATP levels [2],cytoprotection from oxidative damage-induced death [3],suppression of ROS induced by depletion of cellular glutathione [4],cytoprotection against rotenone cytotoxicity [5]
"CCCCN(CCCC)c1ccc2nc3ccc(=O)cc-3sc2c1 [Compound 1, 7-(N,N-Dibutylamino)-3H-phenothiazin-3-one]",somewhat cytotoxic,reduces cellular ATP levels in all concentrations,–,–,–
"CCCCCCCCCCN(CCCCCCCCCC)c1ccc2nc3ccc(=O)cc-3sc2c1 [Compound 2, 7-(N,N-Didecylamino)-3H-phenothiazin-3-one]",somewhat cytotoxic,reduces cellular ATP levels in all concentrations,–,–,–
"CCCCCCCCCCCCCCCN(CCCCCCCCCCCCCCC)c1ccc2nc3ccc(=O)cc-3sc2c1 [Compound 3, 7-(N,N-Dipentadecylamino)-3H-phenothiazin-3-one]",–,–,the least effective,–,–
"CCCCCCCCCCCCCCCN(C)c1ccc2nc3ccc(=O)cc-3sc2c1 [Compound 4, 7-(N-Methyl-N-pentadecylamino)-3H-phenothiazin-3-one]",–,–,better potency than 1 or 2,more potent and effective in protecting FRDA lymphocytes than the parent compound MV,protect the cells against rotenone cytotoxicity more efficiently than the parent compound MV
"CCCCCCCCCCCCCCCN(CCCC)c1ccc2nc3ccc(=O)cc-3sc2c1 [Compound 5, 7-(N-Butyl-N-pentadecylamino)-3H-phenothiazin-3-one]",–,–,better potency than 1 or 2,more potent and effective in protecting FRDA lymphocytes than the parent compound MV,protect the cells against rotenone cytotoxicity more efficiently than the parent compound MV

# — US11560360B2, “Therapeutic compounds” (ARIZONA BOARD OF REGENTS ON BEHALF OF ARIZONA STATE …, priority 2016, dated 2023)
